System: kidney transplantation
Assay: not given
Details: primate kidney transplantation; cited from earlier work

SMILES	animal survival
C[C@@H]1CCN(C(=O)CC#N)C[C@@H]1N(C)c1ncnc2[nH]ccc12 [CP-690,550]	prolong animal survival

System: IFN-γ production
Assay: IL-2-Induced IFN-γ Production in the Mouse
Format: in vivo
Details: oral dose at 30 mg/kg, BALB/c mice, serum IFN-γ
Procedure: IL-2-Induced IFN-γ Production in the Mouse
Administration of IL-2 leads to an increase in serum IFN-γ in the mouse due to NK secretion of the cytokine (Thornton S, Kuhn K A, Finkelman F D and Hirsch R. NK cells secrete high levels of IFN-γ in response to in vivo administration of IL-2. Eur J Immunol 2001 31:3355-3360). The experiment is carried out essentially according to the protocol in Thornton et al. and the test compounds are administered in order to determine the level of inhibition attained. In summary, female BALB/c mice are fasted for 12-18 hours before a study but have free access to water at all times. Test compounds are administered by gavage one hour before intraperitoneal injection of IL-2 and capture antibody. At termination of the studies, the mice are sacrificed by carbon dioxide inhalation, terminal blood samples are collected by cardiac puncture and serum is generated. Serum is stored frozen until assayed for IFN-γ, as described by the kit manufacturer (BD Pharmingen™, San Diego, Calif.).

SMILES	inhibit IFN-γ production [%]
N#Cc1ccc2ncn(-c3ncc4nc(-c5cncnc5)n(C5CCOc6c(F)ccc(F)c65)c4n3)c2c1 (stereo not shown) [Example 6]	93
N#Cc1ccc2ncn(-c3ncc4nc(-c5cncnc5)n([C@@H]5CCOc6c(F)cccc65)c4n3)c2c1 [Example 13, 3-(9-((R)-8-fluorochroman-4-yl)-8-(pyrimidin-5-yl)-9H-purin-2-yl)-3H-benzo[d]imidazole-5-carbonitrile]	76

System: GVHD
Assay: not given
Details: in vivo; cited from earlier work

SMILES	severity of GVHD
COc1cc2ncnc(Nc3ccc(O)cc3)c2cc1OC [WHI-P131]	attenuate the severity of GVHD

System: heart transplantation
Assay: not given
Details: murine heart transplantation; cited from earlier work

SMILES	animal survival
C[C@@H]1CCN(C(=O)CC#N)C[C@@H]1N(C)c1ncnc2[nH]ccc12 [CP-690,550]	prolong animal survival

System: spontaneous autoimmune diabetes
Assay: not given
Details: NOD mouse; cited from earlier work

SMILES	spontaneous autoimmune diabetes development
COc1cc2ncnc(Nc3ccc(O)cc3)c2cc1OC [WHI-P131]	prevent spontaneous autoimmune diabetes development

Target: T1, Jak3 (Homo sapiens, UniProt P52333)
T1 construct: catalytic domain of Jak3 (508aa to 1124aa); made in house; host or cells: Sf9 insect cells (baculovirus, pFastBac 1)
T1 sequence (P52333 508-1124): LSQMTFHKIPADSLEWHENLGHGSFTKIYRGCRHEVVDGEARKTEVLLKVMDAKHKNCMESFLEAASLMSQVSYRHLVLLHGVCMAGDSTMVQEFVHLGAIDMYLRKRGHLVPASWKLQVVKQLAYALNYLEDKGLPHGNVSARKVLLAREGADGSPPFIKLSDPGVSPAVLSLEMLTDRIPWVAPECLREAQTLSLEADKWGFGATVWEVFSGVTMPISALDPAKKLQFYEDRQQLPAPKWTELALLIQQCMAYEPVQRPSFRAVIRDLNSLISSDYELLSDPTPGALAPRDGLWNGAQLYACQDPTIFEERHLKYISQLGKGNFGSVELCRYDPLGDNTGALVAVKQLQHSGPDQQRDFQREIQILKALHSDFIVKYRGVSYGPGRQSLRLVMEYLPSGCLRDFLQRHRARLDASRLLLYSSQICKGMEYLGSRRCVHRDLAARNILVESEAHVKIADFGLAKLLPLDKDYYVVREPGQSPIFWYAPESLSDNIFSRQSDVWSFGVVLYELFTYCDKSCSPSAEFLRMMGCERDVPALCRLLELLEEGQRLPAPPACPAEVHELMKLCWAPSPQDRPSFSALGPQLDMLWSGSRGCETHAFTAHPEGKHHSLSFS
Assay: Jak3 Kinase Assay (HTRF, GST-Jak3 catalytic domain)
Format: biochemical
Details: 1 μM ATP, 60-min incubation, read-out: Jak 3 (Converted)
Procedure: Human Jak3 cDNA was amplified by PCR. A fragment encoding the catalytic domain of Jak3 (508aa to 1124aa) was ligated with GST at 5′ end. This fused GST-Jak3 DNA fragment was cloned into the EcoRI site of the donor plasmid pFastBac 1 (Life Technologies #10359-016). The transformation, transposition, and transfection of insect cells (Sf9) were performed according to the manufacture's instructions. The cell lysate containing recombinant GST-Jak3 was used in the kinase assay. Anti-GST antibody (10 μg/ml, Sigma #G1417) was coated onto a 384-well plate at 4° C. overnight. Cell lysate containing GST-Jak3 (1:100 dilution) was added to the anti-GST coated plates, and GST-Jak3 was captured by immobilized anti-GST antibody. Testing compounds and substrate mix (50 mM HEPES, pH 7, 0.5 mM Na3VO4, 25 mM MgCl2, 1 mM DTT, 0.005% BSA, 1 μM ATP, and 4.5 μg/ml biotinyl poly-Glu, Ala, Tyr) were added to the plate to initiate the reaction. After a 60-min incubation, the reaction was stopped by 4 mM EDTA, and phosphorylation of biotinyl poly-Glu, Ala, Tyr was detected using 17 μg/ml Cy5-streptavidin (Amersham, #PA92005) and 2.7 μg/ml Europium-conjugated anti-phosphotyrosine antibody (PerkinElmer #AD0069) using homogeneous time-resolved fluorescence (HTRF) technology.

SMILES	IC50 [µM]
N#Cc1ccc2ncn(-c3ncc4nc(-c5cncnc5)n(C5CCOc6c(F)ccc(F)c65)c4n3)c2c1 (stereo not shown) [Example 6]	< 0.1
N#Cc1ccc2ncn(-c3ncc4nc(-c5cncnc5)n([C@@H]5CCOc6c(F)cccc65)c4n3)c2c1 [Example 13, 3-(9-((R)-8-fluorochroman-4-yl)-8-(pyrimidin-5-yl)-9H-purin-2-yl)-3H-benzo[d]imidazole-5-carbonitrile]	< 0.1
Fc1ccc2ncn(-c3ncc4nc(Cc5ccccc5)n(C5CCOCC5)c4n3)c2c1 [Example 90, 8-Benzyl-2-(6-fluoro-1H-benzo[d]imidazol-1-yl)-9-(tetrahydro-2H-pyran-4-yl)-9H-purine]	0.1 to 1
c1ccc(-c2nc3cnc(-n4cnc5ccccc54)nc3n2C2CCOCC2)cc1 [Example 91]	0.1 to 1
Cc1nc2cnc(-n3cnc4ccc(Cl)cc43)nc2n1[C@H](C)C(=O)NCC(F)(F)F [Example 92, (2R)-2-(2-(6-chloro-1H-benzo[d]imidazol-1-yl)-8-methyl-9H-purin-9-yl)-N-(2,2,2-trifluoroethyl)propanamide]	< 0.1
N#Cc1ccc2ncn(-c3ncc4nc(NCC5CCCO5)n(C5CCOCC5)c4n3)c2c1 (stereo not shown) [Example 93]	< 0.1
N#Cc1ccc2ncn(-c3ncc4nc(NCCN5CCCCC5)n(C5CCOCC5)c4n3)c2c1 [Example 94]	< 0.1
N#Cc1ccc2ncn(-c3ncc4nc(NCCN5CCOCC5)n(C5CCOCC5)c4n3)c2c1 [Example 95]	< 0.1
CCNc1nc2cnc(-n3cnc4ccc(C#N)cc43)nc2n1C1CCOCC1 [Example 96, 3-(8-(ethylamino)-9-(tetrahydro-2H-pyran-4-yl)-9H-purin-2-yl)-3H-benzo[d]imidazole-5-carbonitrile]	< 0.1
CCNc1nc2cnc(-n3cnc4ccc(C#N)cc43)nc2n1[C@@H]1CCOc2ccccc21 [Example 97]	< 0.1
N#Cc1ccc2ncn(-c3ncc4nc(NC5CCCC5)n([C@@H]5CCOc6ccccc65)c4n3)c2c1 [Example 98]	< 0.1
Cc1ccc([C@@H](C)n2c(C)nc3cnc(-n4cnc5ccc(C#N)cc54)nc32)o1 [Example 99]	0.1 to 1
Cc1nc2cnc(-n3cnc4ccc(C#N)cc43)nc2n1[C@@H]1CC[C@@H](O)c2ccccc21 [Example 100, 3-(9-((1R,4R)-4-Hydroxy-1,2,3,4-tetrahydronaphthalen-1-yl)-8-methyl-9H-purin-2-yl)-3H-benzo[d]imidazole-5-carbonitrile]	< 0.1
N#Cc1ccc2ncn(-c3ncc4nc(Cl)n(C5CCOCC5)c4n3)c2c1 [Example 101]	< 0.1
Fc1ccc2ncn(-c3ncc4nc(Cl)n([C@@H]5CCOc6c(F)cccc65)c4n3)c2c1 [Example 102, 8-chloro-2-(6-fluoro-1H-benzo[d]imidazol-1-yl)-9-((R)-8-fluorochroman-4-yl)-9H-purine]	< 0.1
Fc1ccc2ncn(-c3ncc4nc(-c5ccc(F)nc5)n([C@@H]5CCOc6c(F)cccc65)c4n3)c2c1 [Example 103, 2-(6-fluoro-1H-benzo[d]imidazol-1-yl)-9-((R)-8-fluorochroman-4-yl)-8-(6-fluoropyridin-3-yl)-9H-purine]	< 0.1
N#Cc1ccc2ncn(-c3ncc4nc(Nc5cccnc5)n([C@@H]5CCOc6ccccc65)c4n3)c2c1 [Example 104]	< 0.1
N#Cc1ccc2ncn(-c3ncc4nc(Nc5ccc(S(N)(=O)=O)cc5)n(C5CCOCC5)c4n3)c2c1 [Example 105, 4-(2-(6-cyano-1H-benzo[d]imidazol-1-yl)-9-(tetrahydro-2H-pyran-4-yl)-9H-purin-8-ylamino)benzenesulfonamide]	< 0.1
N#Cc1ccc2ncn(-c3ncc4nc(Nc5cccc(C(F)(F)F)c5)n([C@@H]5CCOc6ccccc65)c4n3)c2c1 [Example 106]	0.1 to 1
N#Cc1ccc2ncn(-c3ncc4nc(Nc5cccnc5)n(C5CCOCC5)c4n3)c2c1 [Example 107]	< 0.1
COc1cccc(Nc2nc3cnc(-n4cnc5ccc(C#N)cc54)nc3n2C2CCOCC2)c1 [Example 108]	< 0.1
N#Cc1ccc2ncn(-c3ncc4nc(Nc5ccccc5F)n(C5CCOCC5)c4n3)c2c1 [Example 109]	< 0.1
N#Cc1cccc(Nc2nc3cnc(-n4cnc5ccc(Cl)cc54)nc3n2C2CCOCC2)c1 [Example 110]	> 1
CSc1nc2cnc(-n3cnc4ccc(F)cc43)nc2n1[C@@H]1CCOc2c(F)cccc21 [Example 111]	< 0.1
O[C@@H]1CC[C@@H](n2c(-c3cncnc3)nc3cnc(-n4cnc5ccc(F)cc54)nc32)c2ccccc21 [Example 112, (1R,4R)-4-(2-(6-Fluoro-1H-benzo[d]imidazol-1-yl)-8-(pyrimidin-5-yl)-9H-purin-9-yl)-1,2,3,4-tetrahydronaphthalen-1-ol]	< 0.1
